Results taken from patent US20020028938A1, “Prostaglandin endoperoxide H synthase biosynthesis inhibitors” (priority 1997, published 2002).

Key:
[1] = target: T1, Human Whole Platelet Cyclooxygenase-1 (Homo sapiens, UniProt P23219); experiment: Human Whole Platelet Cyclooxygenase-1 assay (HWPX); format: cell-based; settings: for IC50: read-out: HWPX IC50 (parenthetical value)
T1 construct: from tissue; host or cells: human blood: isolated platelets (A4) or heparinised whole blood (A9)
Method: Blood from normal healthy volunteers is collected into tubes containing ACD (acid citrate dextrose) as the anticoagulant. This blood is centrifuged at 175×g to prepare platelet rich plasma. The platelet rich plasma is then centrifuged at 100×g to pellet the white blood cells, leaving the platelets in the supernatant. The supernatant is layered on a cushion of 0.7 mL of 10% bovine serum albumin in Tyrodes solution (Gibco; Grand Island, N.Y.) and then centrifuged at 1000×g. The resulting supernatant from this centrifuigation is then removed and 11 mL of Tyrodes solution is added to the remaining pellet of platelets. The platelets are then aliquoted at 120 μl into a 96 well plate. Experimental compounds are added and allowed to pre-incubate for 10 minutes. At the end of this pre-incubation period, the calcium ionophore A23187 is added to a final concentration of 8.8 μM and the incubation is continued for ten minutes. The reaction is stopped by adding cold 6 mM EDTA, the incubation mixture is centrifuged at 220×g, and the supernatants are then analyzed for thromboxane using a commercial kit from Cayman Chemical (Ann Arbor, Mich.

[2] = target: T2, human amnionic whole cell cyclooxygenase-2 (WISH cells) (Homo sapiens, UniProt P35354); experiment: IL-1β induced PGE2 production in WISH cells; format: cell-based; settings: for IC50: read-out: Wish IC50 (parenthetical value); for inhibition at 0.1 µM / inhibition at 1 µM: read-out: Wish % Inhib. at Dose
T2 construct: endogenous in cells; host or cells: human amnionic WISH cells, induced with IL-1beta
T2 sequence (P35354 18-604): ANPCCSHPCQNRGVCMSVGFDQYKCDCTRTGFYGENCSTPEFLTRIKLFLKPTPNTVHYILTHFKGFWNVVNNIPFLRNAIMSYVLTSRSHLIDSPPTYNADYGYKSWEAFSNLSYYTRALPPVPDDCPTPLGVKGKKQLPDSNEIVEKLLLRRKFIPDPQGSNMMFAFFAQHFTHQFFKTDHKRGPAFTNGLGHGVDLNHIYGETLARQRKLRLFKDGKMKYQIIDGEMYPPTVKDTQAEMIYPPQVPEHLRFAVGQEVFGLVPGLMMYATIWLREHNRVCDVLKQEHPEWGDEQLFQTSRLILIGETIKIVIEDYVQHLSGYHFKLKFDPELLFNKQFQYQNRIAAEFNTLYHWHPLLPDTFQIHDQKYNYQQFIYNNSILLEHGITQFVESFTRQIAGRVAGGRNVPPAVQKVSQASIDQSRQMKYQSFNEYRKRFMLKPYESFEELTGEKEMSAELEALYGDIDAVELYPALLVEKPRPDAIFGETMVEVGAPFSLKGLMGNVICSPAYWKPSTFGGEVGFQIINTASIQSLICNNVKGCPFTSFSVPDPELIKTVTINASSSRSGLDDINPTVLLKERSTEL
Method: EIA reagents for prostaglandin determination were purchased from Perseptive Diagnostics, (Cambridge, Mass.). Prostaglandin E2 (PGE2) levels in lavage fluids were determined after the samples were dried under nitrogen and reconstituted with assay buffer. PGE2 levels in enzyme assays or cell culture media were measured against standards prepared in the same milieu. The immunoassays were conducted as recommended by the manufacturer. The EIA was conducted in 96 well microtiter plates (Nunc Roskilde, Denmark) and optical density was measured using a microplate reader (Vmax, Molecular Devices Corp., Menlo Park, Calif.).
Human amnionic WISH cells were grown to 80% confluence in 48 well plates. Following removal of the growth medium and two washings with Geys Balanced Salt Solutn, 5 ng IL-1β /ml (UBI, Lake Placid, N.Y.) was added to the cells with or without test compound in DMSO (0.01% v/v) in Neuman-Tytell Serumless Medium (GIBCO, Grand Island, N.Y.).

[3] = target: T3, recombinant human Cox-2 (r-hu Cox-2) (Homo sapiens, UniProt P35354); experiment: Recombinant human PGHS-2 enzyme assay (RHUCX2); format: biochemical; settings: for IC50: read-out: RHUCX2 IC50 (parenthetical value)
T3 construct: made in house; host or cells: baculovirus/Sf9 insect cells (microsomes)
T3 sequence (P35354 18-604): T2 sequence (P35354 18-604)
Procedure, shortened: (§1)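 PGE2 formed with and without drug quantified by EIA against matrix-matched standards; percent inhibition relative to control mean, IC50 by linear regression.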

[4] = target: T4, recombinant human Cox-1 (r-hu Cox1) (Homo sapiens, UniProt P23219); experiment: Recombinant human PGHS-1 enzyme assay (RHUCX1); format: biochemical; settings: 100 μM; read-out: RHUCX1 % Inh. at Dose
T4 construct: made in house; host or cells: baculovirus/Sf9 insect cells (microsomes)
T4 sequence (P23219 24-599): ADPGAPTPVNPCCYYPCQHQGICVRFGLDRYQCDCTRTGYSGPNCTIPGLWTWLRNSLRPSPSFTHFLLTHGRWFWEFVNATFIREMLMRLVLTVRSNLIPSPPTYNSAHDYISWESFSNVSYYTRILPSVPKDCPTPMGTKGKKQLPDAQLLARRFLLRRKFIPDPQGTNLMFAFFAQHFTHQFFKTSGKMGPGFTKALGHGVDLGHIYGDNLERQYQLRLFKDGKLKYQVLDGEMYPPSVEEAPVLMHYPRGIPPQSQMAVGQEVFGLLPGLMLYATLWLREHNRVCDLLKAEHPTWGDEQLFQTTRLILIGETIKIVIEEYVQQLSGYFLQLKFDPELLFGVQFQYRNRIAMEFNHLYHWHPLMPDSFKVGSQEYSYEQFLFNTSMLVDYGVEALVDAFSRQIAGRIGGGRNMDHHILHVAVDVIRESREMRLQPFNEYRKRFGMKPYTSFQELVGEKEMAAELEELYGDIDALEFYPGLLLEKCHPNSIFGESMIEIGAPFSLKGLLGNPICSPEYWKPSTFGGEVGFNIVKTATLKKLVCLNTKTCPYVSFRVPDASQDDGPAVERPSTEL
Procedure, shortened: as §1

[5] = read-out: HWPX % Inhib. at Dose
[6] = read-out: RHUCX2 % Inh. at Dose

T1 sequence (P23219 24-599): as above

SMILES | melting point | IC50 [2] | IC50 [3] | inhibition at 100 µM [4] | inhibition at 0.1 µM [3, 6] | further results
CS(=O)(=O)c1ccc(-c2cnn(Cc3ccccc3)c(=O)c2Oc2ccc(F)cc2)cc1 [Example 75] | 188 to 190 °C | – | – | – | – | inhibition at 3 µM ([1]; 3 μM, read-out: HWPX % Inhib. at Dose): 0%; inhibition at 10 µM [1, 5]: 84%
CC(c1ccc(F)c(F)c1)n1ncc(-c2ccc(S(N)(=O)=O)cc2)c(-c2ccc(F)cc2)c1=O (stereo not drawn) [Example 148, 2-(α-Methyl-3,4-difluorobenzyl)-4-(4-fluorophenyl)-5-[4-(aminosulfonlI)phenyl]-3(2H)-pyridazinone] | 214 to 215 °C | 42 nM | – | – | – | inhibition at 0.3 µM ([1]; 0.3 μM, read-out: HWPX % Inhib. at Dose): 51%
Cc1cc(-n2ncc(-c3ccc(S(C)(=O)=O)cc3)c(-c3ccc(F)cc3)c2=O)ccc1F [Example 189, 2-(4-Fluoro-3-methylphenyl)-4-(4-fluorophenyl)-5-[4-(methylsulfonyl)phenyl]-3(2H)-pyridazinone] | 168 to 170 °C | 41 nM | – | – | – | inhibition at 100 µM [1, 5]: 31%
CS(=O)(=O)c1ccc(-c2cnn(-c3cccc(Cl)c3)c(=O)c2Cc2cccc(F)c2)cc1 [Example 241, 2-(3-Chlorophenyl)-4-(3-fluorobenzyl)-5-[4-(methylsulfonyl)phenyl]-3(2H)-pridazinone] | 142 to 143 °C | 47.4 nM | 28 nM | 0% | – | –
Cc1cc(-c2c(-c3ccc(S(C)(=O)=O)cc3)cnn(-c3cccc(Cl)c3)c2=O)ccc1F [Example 244, 2-(3-Chlorophenyl)-4-(4-fluoro-3-methylphenyl)-5-[4-(methylsulfonyl)phenyl]-3(2H)-pyridazinone] | 228 to 230 °C | 19 nM | – | – | – | IC50 [1]: 3670 nM
CC(C)CCc1c(-c2ccc(S(C)(=O)=O)c(F)c2)cnn(-c2ccc(F)c(Cl)c2)c1=O [Example 252, 2-(3-Chloro-4-fluorophenyl)-4-(3-methylbutyl)-5-[3-fluoro-4-(methylsulfonyl)phenyl]-3(2H)-pyridazinone] | 102 to 104 °C | 44 nM | – | 0% | 87% | inhibition at 0.01 µM [3, 6]: 26%
CC(C)COc1c(-c2ccc(S(C)(=O)=O)cc2)cnn(CC(F)(F)F)c1=O [Example 278, 2-(2,2,2-Trifluoroethyl)-4-(2-methylpropoxy)-5-[4-(methylsulfonyl)phenyl]-3(2H)-pyridazinone] | 108 to 110 °C | 70 nM | – | 36% | 91% | inhibition at 1 µM [3, 6]: 96%
CC1(COc2c(-c3ccc(S(C)(=O)=O)cc3)cnn(CC(F)(F)F)c2=O)CC1 [Example 279] | 98 to 99 °C | 391 nM | – | 0% | 31% | inhibition at 1 µM [3, 6]: 60%
CS(=O)(=O)c1ccc(-c2cnn(CC(F)(F)F)c(=O)c2SC2CCCCC2)cc1 [Example 287, 2-(2,2,2-Trifluoroethyl)-4-(cyclohexylthio)-5-[4-(methylsulfonyl)phenyl]-3(2H)-pyridazinone] | 165 to 167 °C | 160 nM | – | 0% | 25% | inhibition at 1 µM [3, 6]: 79%; inhibition at 10 µM ([3]; 10 μM, read-out: RHUCX2 % Inh. at Dose): 93%
CS(=O)(=O)c1ccc(-c2cnn(Cc3ccccc3)c(=O)c2-c2ccc(Cl)s2)cc1 [Example 320, 2-Benzyl-4-(5-chloro-2-thienyl)-5-[4-(methylsulfonyl)phenyl]-3(2H)-pyrdazinone] | – | – | – | – | – | HWPX % Inhib. at Dose (μM) ([1]; 3 μM): 29 @ 3%; Wish % Inhib. at Dose (μM) ([2]; 0.01 μM): 15 @ .01%; Wish % Inhib. at Dose (μM) ([2]; 0.1 μM): 78 @ .1%
Cc1ccc(-c2c(-c3ccc(S(C)(=O)=O)cc3)cnn(Cc3ccccc3)c2=O)cc1C [Example 325, 2-Benzyl-4-(3,4-dimethylphenl)-5-[4-(methylsulfonyl)phenyl]-3(2H)-pyridazinone] | – | 40 nM | 199 nM | – | – | IC50 [1]: 2300 nM
CS(=O)(=O)c1ccc(-c2cnn(-c3cccc(Cl)c3)c(=O)c2Oc2ccccc2)cc1 [Example 343, 2-(3-Chlorophenyl)-4-(phenoxy)-5-[4-(methylsulfonyl)phenyl]-3(2H)-pyridazinone] | 205 to 207 °C | 16 nM | – | – | – | IC50 [1]: 191 nM
CN(C)c1cccc(Oc2c(-c3ccc(S(C)(=O)=O)cc3)cnn(-c3cccc(Cl)c3)c2=O)c1 [Example 344, 2-(3-Chlorophenyl)-4-[3-(dimethylamino)phenoxy]-5-[4-(methylsulfonyl)phenyl]-3(2H)-pyridazinone] | 191 to 193 °C | 100 nM | 897 nM | 16% | – | –
COc1ccc(Oc2c(-c3ccc(S(C)(=O)=O)cc3)cnn(-c3cccc(Cl)c3)c2=O)cc1 [Example 345, 2-(3-Chloroophenyl)-4-(4-methoxyphenoxy)-5-[4-(methylsulfonyl)phenyl]-3(2H)-pyridazinone] | 182 to 184 °C | 30 nM | 242 nM | 0% | – | –
CS(=O)(=O)c1ccc(-c2cnn(-c3cccc(Cl)c3)c(=O)c2Sc2ccccn2)cc1 [Example 358, 2-(3-Chlorophenyl)-4-(2-pyridylthio)-5-[4-(methylsulfonyl)phenyl]-3(2H)-pyridazinone] | 110 to 114 °C | – | 2450 nM | 30% | – | inhibition at 0.1 µM ([2]; 0.1 μM): 0%; inhibition at 1 µM [2]: 69%
NS(=O)(=O)c1ccc(-c2cnn(CC=C(F)F)c(=O)c2-c2ccc(F)cc2)cc1F [Example 408] | 180 to 183 °C | 29 nM | 279 nM | 0% | – | –
CC(C)CCCOc1c(-c2ccc(S(C)(=O)=O)cc2)cnn(-c2ccc(F)cc2)c1=O [Example 414, 2-(4-Fluorophenyl)-4-(4-methylpentyloxy)-5-[4-(methylsulfonyl)phenyl]-3(2H)-pyridazinone] | 123 to 125 °C | – | – | 0% | 76% | inhibition at 1 µM [3, 6]: 87%; inhibition at 0.1 µM ([2]; 0.1 μM): 46%; inhibition at 1 µM [2]: 54%
CCC(CC)COc1c(-c2ccc(S(C)(=O)=O)cc2)cnn(-c2ccc(F)cc2)c1=O [Example 430, 2-(4-Fluorophenyl)-4-(2-ethyl-1-butoxy)-5-[4-(methylsulfonyl)phenyl]-3(2H)-pyridazinone] | 107 to 108 °C | 54 nM | – | – | – | inhibition at 10 µM [1, 5]: 34%; inhibition at 100 µM [1, 5]: 89%
COC(Cn1ncc(-c2ccc(S(C)(=O)=O)cc2)c(-c2ccc(F)cc2)c1=O)c1ccccc1 (stereo not drawn) [Example 442, 2-(2-Methoxy-2-phenylethyl)-4-(4-fluorophenyl)-5-[4-(methylsulfonyl)phenyl]-3(2H)-pyridazinone] | 135 to 137 °C | 420 nM | – | 55% | 90% | inhibition at 0.01 µM [3, 6]: 56%
